Assay results: ChEMBL document CHEMBL3046914, “Synthesis and anticancer effects of pongamol derivatives on mitogen signaling and cell cycle kinases” (Med Chem Res, 2012)
The source made the active and inactive calls. The calls are words filed in the database; no cut-off is given here.

Key:
[1] = Cytotoxicity against fibroblasts
[2] = test system: IMR-32; test: Cell cycle arrest in Homo sapiens (human) IMR32 cells assessed as decrease of G2-M phase cell accumulation at 20 to 200 uM by FACS analysis; type: functional, cell-based
[3] = test system: IMR-32; test: (§1) Cytotoxicity against Homo sapiens (human) IMR32 cells after 16 hr by MTT assay; type: functional, cell-based
[4] = test system: IMR-32; test: Cytotoxicity against Homo sapiens (human) IMR32 cells at 20 to 200 uM after 16 hr by MTT assay; type: functional, cell-based
[5] = test system: HeLa; test: Cell cycle arrest in Homo sapiens (human) HeLa cells assessed as decrease of G1 phase cell accumulation at 20 to 200 uM by FACS analysis; type: functional, cell-based
[6] = test system: IMR-32; test: Induction of endoplasmic reticulum stress in Homo sapiens (human) IMR32 cells assessed as Grp94 expression by immunoblot analysis; type: functional, cell-based
[7] = test system: Jurkat; test: Cytotoxicity against Homo sapiens (human) Jurkat cells after 16 hr by MTT assay; type: functional
[8] = test system: Jurkat; test: Induction of endoplasmic reticulum stress in Homo sapiens (human) Jurkat cells assessed as Grp94 expression by immunoblot analysis; type: functional, cell-based
[9] = test system: HeLa; test: Cell cycle arrest in Homo sapiens (human) HeLa cells assessed as decrease of G2-M phase cell accumulation at 20 to 200 uM by FACS analysis; type: functional, cell-based
[10] = test system: Jurkat; test: Cell cycle arrest in Homo sapiens (human) Jurkat cells assessed as decrease of G1 phase cell accumulation at 20 to 200 uM by FACS analysis; type: functional, cell-based
[11] = test system: Jurkat; test: Cell cycle arrest in Homo sapiens (human) Jurkat cells assessed as decrease of G2-M phase cell accumulation at 20 to 200 uM by FACS analysis; type: functional, cell-based
[12] = test system: IMR-32; test: as §1; type: functional
[13] = test system: HeLa; test: Induction of endoplasmic reticulum stress in Homo sapiens (human) HeLa cells assessed as Grp94 expression by immunoblot analysis; type: functional, cell-based
[14] = species: Homo sapiens; test: Inhibition of tyrosine kinase (unknown origin)
[15] = test system: HeLa; test: Cytotoxicity against Homo sapiens (human) HeLa cells after 16 hr by MTT assay; type: functional
[16] = test system: IMR-32; test: Cytotoxicity against Homo sapiens (human) IMR32 cells at 200 uM after 16 hr by MTT assay; type: functional
[17] = test system: IMR-32; test: Cell cycle arrest in Homo sapiens (human) IMR32 cells assessed as decrease of G1 phase cell accumulation at 20 to 200 uM by FACS analysis; type: functional, cell-based
[18] = molecular target: Cyclin-dependent kinase 2 (Homo sapiens) (UniProt P24941); test: Destabilization of CDK2 in Homo sapiens (human) HeLa cells by immunoblot analysis; type: cell-based
[19] = molecular target: Cyclin-dependent kinase 2 (Homo sapiens) (UniProt P24941); test: Destabilization of CDK2 in Homo sapiens (human) IMR32 cells by immunoblot analysis; type: cell-based; details: IMR-32
[20] = molecular target: Cyclin-dependent kinase 2 (Homo sapiens) (UniProt P24941); test: Destabilization of CDK2 in Homo sapiens (human) Jurkat cells by immunoblot analysis; type: cell-based
[21] = molecular target: Mitogen-activated protein kinase 3 (Homo sapiens) (UniProt P27361); test: Destabilization of ERK1 in Homo sapiens (human) IMR32 cells by immunoblot analysis; type: cell-based; details: IMR-32
Mitogen-activated protein kinase 3 (Homo sapiens), sequence (P27361 whole entry): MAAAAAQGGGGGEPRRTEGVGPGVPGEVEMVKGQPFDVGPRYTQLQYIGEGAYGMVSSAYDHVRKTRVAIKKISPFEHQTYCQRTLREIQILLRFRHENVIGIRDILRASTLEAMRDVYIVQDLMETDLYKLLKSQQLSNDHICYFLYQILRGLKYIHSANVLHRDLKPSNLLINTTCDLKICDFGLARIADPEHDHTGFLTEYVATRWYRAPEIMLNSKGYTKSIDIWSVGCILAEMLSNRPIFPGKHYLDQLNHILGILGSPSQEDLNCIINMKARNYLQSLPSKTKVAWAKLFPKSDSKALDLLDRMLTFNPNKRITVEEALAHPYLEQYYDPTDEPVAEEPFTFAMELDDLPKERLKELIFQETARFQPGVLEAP

[22] = molecular target: Mitogen-activated protein kinase 3 (Homo sapiens) (UniProt P27361); test: Destabilization of ERK1 in Homo sapiens (human) Jurkat cells by immunoblot analysis; type: cell-based
[23] = molecular target: Mitogen-activated protein kinase 3 (Homo sapiens) (UniProt P27361); test: Destabilization of ERK1 in Homo sapiens (human) HeLa cells by immunoblot analysis; type: cell-based

| Structure (SMILES) | Activity [1] | Activity [2] | Activity [3] | Activity [4] | Activity [5] | Activity [7] | Activity [9] | Activity [10] | Activity [11] | Activity [12] | inhibition [14] | Activity [15] | Activity [17] | other results |
| --- | --- | --- | --- | --- | --- | --- | --- | --- | --- | --- | --- | --- | --- | --- |
| COc1c(-c2cc(-c3ccccc3)n(-c3cccc([N+](=O)[O-])c3)n2)ccc2occc12 | Non-toxic | inactive | Dose-dependent effect |  |  |  |  |  |  |  |  |  |  |  |
| COc1c(-c2cc(-c3ccccc3)n(-c3ccc(C)cc3C)n2)ccc2occc12 | Non-toxic | inactive |  | inactive |  |  |  |  |  |  |  |  |  |  |
| COc1c(C(=O)/C=C(\O)c2ccccc2)ccc2occc12 [PONGAMOL] | Non-toxic | Active |  | inactive | Active | 17% | Active | Active | Active | 38% | inactive | 23% |  | Activity [6]: Active; Activity [8]: Active; Activity [13]: Active |
| COc1c(-c2cc(-c3ccccc3)[nH]n2)ccc2occc12 | Non-toxic | inactive | Dose-dependent effect |  |  |  |  |  |  |  |  |  |  |  |
| COc1c(-c2cc(-c3ccccc3)n(-c3ccc(F)cc3)n2)ccc2occc12 | Non-toxic | inactive | Dose-dependent effect |  |  |  |  |  |  |  |  |  |  |  |
| COc1c(-c2cc(-c3ccccc3)n(-c3ccccc3)n2)ccc2occc12 | Non-toxic | inactive |  | inactive |  |  |  |  |  |  |  |  |  |  |
| COc1c(-c2cc(-c3ccccc3)n(-c3ccc([N+](=O)[O-])cc3[N+](=O)[O-])n2)ccc2occc12 | Non-toxic | inactive | Dose-dependent effect |  |  |  |  |  |  |  |  |  |  |  |
| COc1c(-c2cc(-c3ccccc3)n(-c3cccc(F)c3)n2)ccc2occc12 | Non-toxic | Active | Dose-dependent effect |  | Active | 35% | Active | Active | Active | 86% | inactive | 28% | Active | Activity [16]: 60%; Activity [6]: Active; Activity [8]: Active; Activity [18]: Active; Activity [19]: Active; Activity [13]: Active; Activity [20]: Active; Activity [21]: Active |
| COc1c(-c2cc(-c3ccccc3)on2)ccc2occc12 | Non-toxic | Active | Dose-dependent effect |  | Active | 31% | Active | Active | Active | 58% | inactive | 26% | Active | Activity [16]: 60%; Activity [22]: Active; Activity [18]: Active; Activity [19]: Active; Activity [23]: Active; Activity [20]: Active; Activity [21]: Active |
| COc1c(-c2cc(-c3ccccc3)n(-c3ccc(Cl)cc3Cl)n2)ccc2occc12 | Non-toxic | inactive |  | inactive |  |  |  |  |  |  |  |  |  |  |
| COc1c(-c2cc(-c3ccccc3)n(-c3ccccc3C)n2)ccc2occc12 | Non-toxic | inactive | Dose-dependent effect |  |  |  |  |  |  |  |  |  | Active |  |
| COc1ccc(-n2nc(-c3ccc4occc4c3OC)cc2-c2ccccc2)cc1 | Non-toxic | inactive |  | inactive |  |  |  |  |  |  |  |  |  |  |
| COc1c(-c2cc(-c3ccccc3)n(-c3ccccc3F)n2)ccc2occc12 | Non-toxic | inactive | Dose-dependent effect |  | Active | 45% | Active | Active | Active | 71% | inactive | 35% | Active | Activity [16]: 60%; Activity [18]: Active; Activity [19]: Active; Activity [23]: Active; Activity [20]: Active |
